Assay results as given in ChEMBL document CHEMBL1135947, “Structure-based design and synthesis of HIV-1 protease inhibitors employing beta-D-mannopyranoside scaffolds” (Bioorg Med Chem Lett, 2002).

Each molecule was assayed against T1, Human immunodeficiency virus type 1 protease (Human immunodeficiency virus 1, UniProt Q72874) (assay: Compound was tested for inhibitory activity against HIV-1 protease).

Compound	IC50 [µM]
CO[C@@H]1OC(CNC(=O)OCc2ccccc2)[C@@H](O)C(OCc2ccccc2)[C@H]1O (stereo partly specified)	4.66
COc1ccc(O[C@@H]2C(CNC(C)=O)O[C@@H](OC)[C@H](O)C2OCc2ccccc2)cc1 (stereo partly specified)	7.74
CO[C@@H]1OC2COC(c3ccccc3)O[C@H]2C(OCc2ccccc2)[C@H]1O (stereo partly specified)	4.85
COc1ccc(O[C@@H]2C(CNC(=O)OCc3ccccc3)O[C@@H](OC)[C@H](O)C2OCc2ccccc2)cc1 (stereo partly specified)	4.48
CC(=O)NCC1O[C@@H](Oc2ccccc2)C(O)C(O)[C@@H]1O (single isomer, unassigned)	8.95

The molecules below were run against T1, Human immunodeficiency virus type 1 protease (assay: Compound was tested for inhibitory activity against HIV-1 protease; Not active).

Compound	IC50
CO[C@@H]1OC(CNC(=O)C(C)(C)C)[C@@H](O)C(O)[C@@H]1O (stereo partly specified)	Not Active
